Measurements published in patent US9573913B2, “Cathepsin cysteine protease inhibitors” (Merck Sharp & Dohme Corp., priority 2013, dated 2017).

Key:
human cathepsin K = human cathepsin K (UniProt P43236); test: Cathepsin K Assay (hrbCat K); assay type: biochemical; settings: Z-Leu-Arg-AMC substrate, pH 5.5, 15 min preincubation; read-out: hrbCat K (IP (nM))
Description: Cathepsin K Assay (hrbCat K)
(§1) Then 0.5 μL of DMSO from each dilution were added to 18.75 μL of assay buffer (MES, 50 mM (pH 5.5); EDTA, 2.5 mM; DTT, 2.5 mM and 10% DMSO) containing human cathepsin K (0.4 nM) in assay buffer solution. The assay solutions were mixed for 5-10 seconds on a shaker plate and incubated for 15 minutes at room temperature. Z-Leu-Arg-AMC (8 μM) in 6.25 μL of assay buffer was added to the assay solutions. Hydrolysis of the coumarin leaving group (AMC) was followed by spectrofluorometry (Exλ=360 nm; Emλ=460 nm) for 30 minutes. Percent of inhibition were calculated by fitting experimental values to standard mathematical model for dose response curve.

human cathepsin F = target: T1, human cathepsin F (Homo sapiens, UniProt Q9UBX1); test: Cathepsin F assay (hCat F); assay type: biochemical; settings: Z-Phe-Arg-AMC substrate, pH 5.5, 15 min preincubation; read-out: hCat F (IP (nM))
T1 sequence (Q9UBX1 271-484): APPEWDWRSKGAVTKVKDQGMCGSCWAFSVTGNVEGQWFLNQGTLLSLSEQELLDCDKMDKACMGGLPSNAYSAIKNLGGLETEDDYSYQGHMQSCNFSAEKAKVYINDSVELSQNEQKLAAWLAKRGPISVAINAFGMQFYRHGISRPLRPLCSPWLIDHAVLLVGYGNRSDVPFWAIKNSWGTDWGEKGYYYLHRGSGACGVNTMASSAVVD
Description: Cathepsin F assay (hCat F)
as §1, with “Serial dilutions (1/3) from 500 μM down to 0.025 μM of test compounds were prepared in dimethyl sulfoxide (DMSO). Then” for “Then”, “F (10” for “K (0.4”, “Z-Phe-Arg-AMC” for “Z-Leu-Arg-AMC”, “20” for “30”

`N#CCNC(=O)C1CCCCC1c1nc(-c2ccccc2)sc1-c1ccc(N2CCS(=O)(=O)CC2)cc1` (racemic) [Example 247, N-(cyanomethyl)-2-(5-(4-(1,1-dioxidothiomorpho-lino)phenyl)-2-phenylthiazol-4-yl)cyclohexane-carboxamide] showed an IC50 (human cathepsin K) of 2.1 nM and an IC50 (human cathepsin F) of 229 nM.

Molecule `N#CC1(NC(=O)[C@@H]2CC3CC3C[C@H]2c2nc(-c3cncc(F)c3)sc2-c2ccc(N3CCS(=O)(=O)CC3)cc2)CC1` (single isomer, unassigned) [Compound 3, (1S or 1R,3R,4R,6R or 6S)-N-(1-Cyanocyclopropyl)-4-(5-(4-(1,1-dioxidothiomorpholino)phenyl)-2-(5-fluoropyridin-3-yl)thiazol-4-yl)bicyclo[4.1.0]heptane-3-carboxamide] has an IC50 (human cathepsin K) of 0.7 nM and an IC50 (human cathepsin F) of 225 nM.

With `N#CC1(NC(=O)[C@@H]2CC3CC3C[C@H]2c2nc(-c3cncc(F)c3)sc2-c2ccc(N3CCS(=O)(=O)CC3)cc2)CC1` (single isomer, unassigned) [Compound 4, (1R or 1S,3R,4R,6S or 6R)-N-(1-Cyanocyclopropyl)-4-(5-(4-(1,1-dioxidothiomorpholino)phenyl)-2-(5-fluoropyridin-3-yl)thiazol-4-yl)bicyclo[4.1.0]heptane-3-carboxamide] the IC50 (human cathepsin K) was 0.9 nM and the IC50 (human cathepsin F) was 439 nM.

For `N#CC1(NC(=O)[C@@H]2CC3CC3C[C@H]2c2nc(-c3ccc(F)cn3)sc2-c2ccc(N3CCS(=O)(=O)CC3)cc2)CC1` (single isomer, unassigned) [Example 100, (1S or 1R,3R,4R,6R or 6S)-N-(1-cyanocyclopropyl)-4-(5-(4-(1,1-dioxidothiomorpho-lino)phenyl)-2-(5-fluoropyridin-2-yl)thiazol-4-yl)bicyclo[4.1.0] heptane-3-carboxamide], the IC50 (human cathepsin K) was 1.7 nM and the IC50 (human cathepsin F) was 632 nM.

`N#CC1(NC(=O)[C@@H]2CC3CC3C[C@H]2c2nc(-c3ccc(F)cn3)sc2-c2ccc(N3CCS(=O)(=O)CC3)cc2)CC1` (single isomer, unassigned) [Example 105, (1R or 1S,3R,4R,6S or 6R)-N-(1-cyanocyclopropyl)-4-(5-(4-(1,1-dioxidothiomorpho-lino)phenyl)-2-(5-fluoropyridin-2-yl)thiazol-4-yl)bicyclo[4.1.0] heptane-3-carboxamide] was tested, and the IC50 (human cathepsin K) was 0.8 nM and the IC50 (human cathepsin F) was 371 nM.

`N#CC1(NC(=O)[C@@H]2CC3CC3C[C@H]2c2nc(-c3cncc(Cl)c3)sc2-c2ccc(N3CCS(=O)(=O)CC3)cc2)CC1` (single isomer, unassigned) [Example 109, (1S or R,3R,4R,6R or S)-4-(2-(5-chloropyridin-3-yl)-5-(4-(1,1-dioxidothiomorpho-lino)phenyl)thiazol-4-yl)-N-(1-cyanocyclopropyl) bicyclo[4.1.0]heptane-3-carboxamide] gave an IC50 (human cathepsin K) of 0.6 nM and an IC50 (human cathepsin F) of 258 nM.

`N#CC1(NC(=O)[C@@H]2CC3CC3C[C@H]2c2nc(-c3cncc(F)c3)sc2-c2ccc(N3CCS(=O)(=O)CC3)cc2)CC1` (single isomer, unassigned) [Example 111, (1S or 1R,3R,4R,6R or 6S)-N-(1-cyanocyclopropyl)-4-(5-(4-(1,1-dioxidothiomorpho-lino)phenyl)-2-(5-fluoropyridin-3-yl)thiazol-4-yl)bicyclo[4.1.0] heptane-3-carboxamide] was tested, and the IC50 (human cathepsin K) was 0.7 nM and the IC50 (human cathepsin F) was 225 nM.

With `N#CC1(NC(=O)[C@@H]2CC3CC3C[C@H]2c2nc(-c3cncc(F)c3)sc2-c2ccc(N3CCS(=O)(=O)CC3)cc2)CC1` (single isomer, unassigned) [Example 112, (1R or 1S,3R,4R,6S or 6R)-N-(1-cyanocyclopropyl)-4-(5-(4-(1,1-dioxidothiomorpho-lino)phenyl)-2-(5-fluoropyridin-3-yl)thiazol-4-yl)bicyclo[4.1.0] heptane-3-carboxamide] the IC50 (human cathepsin K) was 0.9 nM and the IC50 (human cathepsin F) was 439 nM.

`N#CC1(NC(=O)[C@@H]2CC3CC3C[C@H]2c2nc(-c3cncc(Cl)c3)sc2-c2ccc(N3CCS(=O)(=O)CC3)cc2)CC1` (single isomer, unassigned) [Example 113] showed an IC50 (human cathepsin K) of 0.8 nM and an IC50 (human cathepsin F) of 482 nM.

Molecule `CC(C#N)NC(=O)[C@@H]1C[C@@H](F)CC[C@H]1c1nc(-c2cncc(F)c2)sc1-c1ccc(N2CCS(=O)(=O)CC2)cc1` (single isomer, unassigned) [Example 126, (1R,2R,5S)-N-((S or R)-1-cyanoethyl)-2-(5-(4-(1,1-dioxidothiomorpho-lino)phenyl)-2-(5-fluoropyridin-3-yl)thiazol-4-yl)-5-fluorocyclohexane-carboxamide] has an IC50 (human cathepsin K) of 1.7 nM and an IC50 (human cathepsin F) of 1760 nM.

With `CC(C#N)NC(=O)[C@@H]1C[C@@H](F)CC[C@H]1c1nc(-c2cncc(F)c2)sc1-c1ccc(N2CCS(=O)(=O)CC2)cc1` (single isomer, unassigned) [Example 127, (1R,2R,5S)-N-((R or S)-1-cyanoethyl)-2-(5-(4-(1,1-dioxidothiomorpho-lino)phenyl)-2-(5-fluoropyridin-3-yl)thiazol-4-yl)-5-fluorocyclohexane-carboxamide] the IC50 (human cathepsin K) was 42.5 nM and the IC50 (human cathepsin F) was ≥ 10000 nM.

For `N#CC(NC(=O)[C@@H]1CCCC[C@H]1c1nc(-c2ccc(F)cn2)sc1-c1ccc(N2CCS(=O)(=O)CC2)cc1)C1CCOCC1` (single isomer, unassigned) [Example 185, (1R,2R)-N-((R or S)-cyano(tetrahydro-2H-pyran-4-yl)methyl)-2-(5-(4-(1,1-dioxidothiomorpho-lino)phenyl)-2-(5-fluoropyridin-2-yl)thiazol-4-yl)cyclohexane-carboxamide], the IC50 (human cathepsin K) was 1.3 nM and the IC50 (human cathepsin F) was 695 nM.

In the case of `N#CC(NC(=O)[C@@H]1CCCC[C@H]1c1nc(-c2ccc(F)cn2)sc1-c1ccc(N2CCS(=O)(=O)CC2)cc1)C1CCOCC1` (single isomer, unassigned) [Example 186, (1R,2R)-N-((S or R)-cyano(tetrahydro-2H-pyran-4-yl)methyl)-2-(5-(4-(1,1-dioxidothiomorpho-lino)phenyl)-2-(5-fluoropyridin-2-yl)thiazol-4-yl)cyclohexane-carboxamide], the IC50 (human cathepsin K) is reported as 1900 nM and the IC50 (human cathepsin F) is reported as ≥ 10000 nM.

`CC(C)C(C#N)NC(=O)[C@@H]1CCCC[C@H]1c1nc(-c2ccc(F)cn2)sc1-c1ccc(N2CCS(=O)(=O)CC2)cc1` (single isomer, unassigned) [Example 187, (1R,2R)-N-((S or R)-1-cyano-2-methylpropyl)-2-(5-(4-(1,1-dioxidothiomorpho-lino)phenyl)-2-(5-fluoropyridin-2-yl)thiazol-4-yl)cyclohexane-carboxamide] was tested, and the IC50 (human cathepsin K) was 3820 nM and the IC50 (human cathepsin F) was ≥ 10000 nM.

`CCC(C#N)NC(=O)[C@@H]1CCCC[C@H]1c1nc(-c2ccc(F)cn2)sc1-c1ccc(N2CCS(=O)(=O)CC2)cc1` (single isomer, unassigned) [Example 188, (1R,2R)-N-((S or R)-1-cyanopropyl)-2-(5-(4-(1,1-dioxidothiomorpho-lino)phenyl)-2-(5-fluoropyridin-2-yl)thiazol-4-yl)cyclohexane-carboxamide] was tested, and the IC50 (human cathepsin K) was 15.3 nM and the IC50 (human cathepsin F) was 6710 nM.

For `CC(C)C(C#N)NC(=O)[C@@H]1CCCC[C@H]1c1nc(-c2ccc(F)cn2)sc1-c1ccc(N2CCS(=O)(=O)CC2)cc1` (single isomer, unassigned) [Example 191, (1R,2R)-N-((R or S)-1-cyano-2-methylpropyl)-2-(5-(4-(1,1-dioxidothiomorpho-lino)phenyl)-2-(5-fluoropyridin-2-yl)thiazol-4-yl)cyclohexane-carboxamide], the IC50 (human cathepsin K) was 1.5 nM and the IC50 (human cathepsin F) was 691 nM.

`CCC(C#N)NC(=O)[C@@H]1CCCC[C@H]1c1nc(-c2ccc(F)cn2)sc1-c1ccc(N2CCS(=O)(=O)CC2)cc1` (single isomer, unassigned) [Example 192, (1R,2R)-N-((R or S)-1-cyanopropyl)-2-(5-(4-(1,1-dioxidothiomorpho-lino)phenyl)-2-(5-fluoropyridin-2-yl)thiazol-4-yl)cyclohexane-carboxamide] was tested, and the IC50 (human cathepsin K) was 0.4 nM and the IC50 (human cathepsin F) was 103 nM.

Molecule `N#CC(CC(F)(F)F)NC(=O)[C@@H]1CCCC[C@H]1c1nc(-c2ccc(F)cn2)sc1-c1ccc(N2CCS(=O)(=O)CC2)cc1` (single isomer, unassigned) [Example 193, (1R,2R)-N-((R or S)-1-cyano-3,3,3-trifluoropropyl)-2-(5-(4-(1,1-dioxidothiomorpho-lino)phenyl)-2-(5-fluoropyridin-2-yl)thiazol-4-yl)cyclohexane-carboxamide] has an IC50 (human cathepsin K) of 0.6 nM and an IC50 (human cathepsin F) of 21 nM.
